The values below come from patent publication US7297481B2, “Detection of DNA damage” (ESA Biosciences, Inc., priority 2000, dated 2007).

Series [1] can be described thus: Effect of simple antioxidants on levels of 8OH2′dG. Format: in vivo.
The nature of series [2]: Urine 8OH2′dG levels in individuals exposed to chemicals. The format is in vivo, human. Conditions: individuals exposed to the substance.
The subject of a further series is C. Elegans. The experiment in a line: 8OH2′dG production (DNA damage rate) in C. Elegans culture. The format is in vivo. From the text:
2. Relevant to the use of DNA damage rate measurements to cancer diagnosis I have observed that in C. Elegans culture there is a burst of 8OH2′dG production during the stage of rapid replication of the gonadal cells. In similar experiments I observed that a toxin (3 nitro propionic acid, 3NP) increased the rate of DNA damage during replication.
4. […] In rapid cell replication in C. Elegans, in 3NP insulted C.

Series [3] in a line: Dialysis studies of 8OH2′dG in extracellular matrix, probes in brain and muscle. Format: in vivo. To be noted: extracellular matrix vs free levels inside cellular material, brain and muscle of rat and mouse. From the text:
(§1) 1. Dialysis studies of 8OH2′dG in extracellular matrix with probes placed in brain and muscle of rat and mouse to measure the rate of production and excretion compared with the free levels inside the cellular material confirm that excretion from the cells is rapid. Similarly, comparison of CSF, Plasma and urinary levels of ca 1:10:2000 in ca 100 ALS and control subjects confirm that the rate of clearance from the body is high.

Series [4] in a line: Comparison of CSF, plasma, urine, saliva and sweat levels of 8OH2′dG. The format is in vivo, human.
Text: as §1

As to Tocopherol, the “effect on the levels of 8OH2′dG” value in series [1] is recorded as “no effect”.

In the case of `Nc1ccccc1` [aniline], the “Urine levels of 8OH2′dG” value in series [2] was “significantly increased”.

Turning to `O=C(O)CC[N+](=O)[O-]` [3NP, 3 nitro propionic acid], the “rate of damage after the toxin was removed” value in the series on C. Elegans (after exposure) is given as “still maintained at a higher level”. Moreover, the “rate of DNA damage during replication” value with C. Elegans (toxin exposure) is recorded as “increased”.

Consider `O=C1O[C@H]([C@@H](O)CO)C(O)=C1O` [Ascorbate], for which the “effect on the levels of 8OH2′dG” value in series [1] is “no effect”.

Turning to `Nc1nc2c(nc(O)n2[C@H]2C[C@H](O)[C@@H](CO)O2)c(=O)[nH]1` [8OH2′dG, 8 hydroxy 2′ deoxyguanosine], in series [3], the “excretion from the cells” value was “rapid”. In addition, the “rate of clearance from the body” value in series [4] (CSF, plasma and urinary levels ca 1:10:2000 in ca 100 ALS and control subjects) is “high”. For the same compound, the mode of removal entry in series [4] (saliva or sweat vs. urine levels, plasma of kidney dialysis patients) is given as “urinary excretion is the primary mode of removal”.

In the case of `[As]` [arsenic], in series [2], the “Urine levels of 8OH2′dG” value is listed as “significantly increased”.

For the compound `Cc1ccccc1N` [o-toluidine], in series [2], the “Urine levels of 8OH2′dG” value is listed as “significantly increased”.
